Test results reported in patent publication US20140057895A1, “INDAZOLE- AND PYRROLOPYRIDINE-DERIVATIVE AND PHARMACEUTICAL USE THEREOF” (priority 2011, published 2014).
Counter-ions that a name gives are not always drawn.

Molecular target: T1, Human 5-HT4 receptor (5-HT4b) (Homo sapiens, UniProt Q13639)
T1 construct: expressed in transfected cells; membrane preparation
Assay: Test Example 3: Human 5-HT4 receptor binding assay, membranes of CHO-K1 cells stably expressing 5-HT4b receptors (Table 99)
Details: mean value of each group
Protocol: To an assay tube were added 0.1 nM [^3H]-GR113808 {chemical name: [1-[2-(methylsulfonylamino) ethyl]-4-piperidinyl]methyl 1-methylindole-3-carboxylate}, receptor membrane preparations, and Hepes buffer (50 mM, pH 7.4, 4° C., 1 ml) containing test compounds or 30 μM serotonin; and the mixture was incubated at 37° C. for 30 minutes. On quenching the reaction, the mixture was rapidly filtered on whatman GF/B filter, which was presoaked in 0.1% polyethyleneimine for 1 hour, by using Brandel cell Harvester, and washed with ice-cooled 50 mM Tris-HCl (pH 7.7, 4 ml) three times. To the filter after filtration was added a liquid scintillator (Ecoscint), and then a radioactivity was determined by a liquid scintillation counter.
50% Inhibition concentrations (IC50) were determined from inhibition rates of test compounds to specific bindings which were obtained by subtracting nonspecific bindings from total binding amounts of [^3H]-GR113808.
Human 5-HT4 receptor membrane preparations were prepared from CHO-K^1 cells which stably express 5-HT4b receptors, and human 5-HT4 receptor binding assay was carried out in a similar manner as in the guinea pig 5-HT4 receptor binding assay. The following tables show results of serotonin 4 (5-HT4) receptor binding assay. In the following tables, the compounds used in the test are shown in numbers which correspond to the Example numbers above where the preparations of the compounds are described.

T1 sequence (Q13639 whole entry): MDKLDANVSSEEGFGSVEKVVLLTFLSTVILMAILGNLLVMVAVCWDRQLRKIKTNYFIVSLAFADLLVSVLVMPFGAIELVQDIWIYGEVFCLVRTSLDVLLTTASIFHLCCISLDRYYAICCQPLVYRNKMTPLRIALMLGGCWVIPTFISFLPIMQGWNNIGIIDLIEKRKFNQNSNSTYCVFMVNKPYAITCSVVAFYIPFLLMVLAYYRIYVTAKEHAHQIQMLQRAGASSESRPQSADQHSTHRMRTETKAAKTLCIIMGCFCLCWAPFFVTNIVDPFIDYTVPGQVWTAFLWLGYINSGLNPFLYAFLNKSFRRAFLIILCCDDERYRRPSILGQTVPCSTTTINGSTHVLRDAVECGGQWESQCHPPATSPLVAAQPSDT

Row | SMILES | IC50
1 | CC(C)c1nn(-c2noc(C3CCN(C(C)(C)C(=O)O)CC3)n2)c2c(F)cccc12 [Example 401, 2-(4-{3-[7-fluoro-3-(propan-2-yl)-1H-indazol-1-yl]-1,2,4-oxadiazol-5-yl}piperidin-1-yl)-2-methylpropanoic acid hydrochloride] | 296 nM
2 | CC(=O)N1CCC(N2CC(Cc3nc(-n4nc(C(C)C)c5cccc(F)c54)no3)C2)CC1 [Example 416] | 27.4 nM
3 | CC(=O)N1CCC(N2CCC(c3nc(-n4nc(C(C)C)c5cccc(F)c54)no3)CC2C)CC1 (stereo not drawn) [Example 418, 1-(4-{3-[7-fluoro-3-(propan-2-yl)-1H-indazol-1-yl]-1,2,4-oxadiazol-5-yl}-2-methyl-1,4′-bipiperidin-1′-yl}ethanone] | 442 nM
4 | Cc1cccc2c1c(C(C)C)nn2-c1noc(C2CCN(C3CCC3)CC2)n1 [Example 423, 1-[5-(1-cyclobutylpiperidin-4-yl)-1,2,4-oxadiazol-3-yl]-4-methyl-3-(propan-2-yl)-1H-indazole] | 136 nM
5 | Cc1cccc2c1c(C(C)C)nn2-c1noc(C2CCN(C3CCOCC3)CC2)n1 [Example 424, 4-methyl-3-(propan-2-yl)-1-{5-[1-(tetrahydro-2H-pyran-4-yl)piperidin-4-yl]-1,2,4-oxadiazol-3-yl}-1H-indazole] | 55 nM
6 | CC(C)c1nn(-c2noc(C3CCN(C4CCS(=O)(=O)CC4)CC3)n2)c2c(F)cccc12 [Example 444, 1-{5-[1-(1,1-dioxidotetrahydro-2H-thiopyran-4-yl)piperidin-4-yl]-1,2,4-oxadiazol-3-yl}-7-fluoro-3-(propan-2-yl)-1H-indazole] | 96.8 nM
7 | CC(C)Cc1nn(-c2noc(C3CCN(C4CCN(C(=O)CO)CC4)CC3)n2)c2c(F)cccc12 [Example 526, 1-(4-{3-[7-fluoro-3-(2-methylpropyl)-1H-indazol-1-yl]-1,2,4-oxadiazol-5-yl}-1,4′-bipiperidin-1′-yl)-2-hydroxyethanone] | 25.2 nM
8 | CC(C)c1nn(-c2noc(C3CCN(C4C5CCCC4CN(C(=O)CO)C5)CC3)n2)c2c(F)cccc12 (stereo not drawn) [Example 535, 1-[(9-anti)-9-(4-{3-[7-fluoro-3-(propan-2-yl)-1H-indazol-1-yl]-1,2,4-oxadiazol-5-yl}piperidin-1-yl)-3-azabicyclo[3.3.1]non-3-yl]-2-hydroxyethanone] | 29.7 nM
9 | CCOC(=O)N1CCC(N2CCC(c3nc(-n4nc(C(C)C)c5cccc(F)c54)no3)CC2)C(OC)C1 (stereo not drawn) [Example 556, ethyl 4-{3-[7-fluoro-3-(propan-2-yl)-1H-indazol-1-yl]-1,2,4-oxadiazol-5-yl}-3′-methoxy-1,4′-bipiperidine-1′-carboxylate] | 52.1 nM
10 | CC(=O)N1CC[C@@H](NC2CC(c3nc(-n4nc(C(C)C)c5cccc(F)c54)no3)C2)C1 (stereo partly drawn) [Example 592, 1-{(3R)-3-[(3-{3-[7-fluoro-3-(propan-2-yl)-1H-indazol-1-yl]-1,2,4-oxadiazol-5-yl}cyclobutyl)amino]pyrrolidin-1-yl}ethanone] | < 20 nM
11 | CC(C)c1nn(-c2noc(C3CC(NCCC4CCOC4)C3)n2)c2c(F)cccc12 (stereo not drawn) [Example 599, 3-{3-[7-fluoro-3-(propan-2-yl)-1H-indazol-1-yl]-1,2,4-oxadiazol-5-yl}-N-[2-(tetrahydrofuran-3-yl)ethyl]cyclobutanamine] | < 20 nM
12 | CC(C)c1nn(-c2noc(C3CC(NC4CCCOC4)C3)n2)c2c(F)cccc12 (stereo not drawn) [Example 600, N-(3-{3-[7-fluoro-3-(propan-2-yl)-1H-indazol-1-yl]-l,2,4-oxadiazol-5-yl}cyclobutyl)tetrahydro-2H-pyran-3-amine] | < 20 nM
13 | CC(C)c1nn(-c2noc(C3CC(NCC4CCCOC4)C3)n2)c2c(F)cccc12 (stereo not drawn) [Example 601, 3-{3-[7-fluoro-3-(propan-2-yl)-1H-indazol-1-yl]-1,2,4-oxadiazol-5-yl}-N-{tetrahydro-2H-pyran-3-ylmethyl)cyclobutanamine] | < 20 nM
14 | CC(C)c1nn(-c2noc(C3CC(NCC4CCCCO4)C3)n2)c2c(F)cccc12 (stereo not drawn) [Example 602, 3-{3-[7-fluoro-3-(propan-2-yl)-1H-indazol-1-yl]-1,2,4-oxadiazol-5-yl}-N-(tetrahydro-2H-pyran-2-ylmethyl)cyclobutanamine] | < 20 nM
15 | CC(C)c1nn(-c2noc(C3CC(NCCC4CCOCC4)C3)n2)c2c(F)cccc12 (stereo not drawn) [Example 603, 3-{3-[7-fluoro-3-(propan-2-yl)-1H-indazol-1-yl]-1,2,4-oxadiazol-5-yl}-N-[2-(tetrahydro-2H-pyran-4-yl)ethyl]cyclobutanamine] | 28.6 nM
16 | CC(C)c1nn(-c2noc(C3CC(NCCC4CCCOC4)C3)n2)c2c(F)cccc12 (stereo not drawn) [Example 604, 3-{3-[7-fluoro-3-(propan-2-yl)-1H-indazol-1-yl]-1,2,4-oxadiazol-5-yl}-N-[2-(tetrahydro-2H-pyran-3-yl)ethyl]cyclobutanamine] | < 20 nM
17 | CC(C)c1nn(-c2noc(C3CC(NC4COC4)C3)n2)c2c(F)cccc12 (stereo not drawn) [Example 606, N-(3-{3-[7-fluoro-3-(propan-2-yl)-1H-indazol-1-yl]-1,2,4-oxadiazol-5-yl}cyclobutyl)oxetan-3-amine] | 86.7 nM
18 | CC(C)c1nn(-c2noc(C3CC(NC4CCOC4)C3)n2)c2c(F)cccc12 (stereo not drawn) [Example 607, N-(3-{3-[7-fluoro-3-(propan-2-yl)-1H-indazol-1-yl]-1,2,4-oxadiazol-5-yl)cyclobutyl)tetrahydrofuran-3-amine] | < 20 nM
19 | CC(C)c1nn(-c2noc(C3CC(NCC4CCOC4)C3)n2)c2c(F)cccc12 (stereo not drawn) [Example 608, 3-{3-[7-fluoro-3-(propan-2-yl)-1H-indazol-1-yl]-1,2,4-oxadiazol-5-yl}-N-(tetrahydrofuran-3-ylmethyl)cyclobutanamine] | < 20 nM
20 | COCCCNC1CC(c2nc(-n3nc(C(C)C)c4cccc(F)c43)no2)C1 (stereo not drawn) [Example 609, 3-{3-[7-fluoro-3-(propan-2-yl)-1H-indazol-1-yl]-1,2,4-oxadiazol-5-yl}-N-(3-methoxypropyl)cyclobutanamine] | < 20 nM
21 | COCCN(CC1CCOCC1)C1CC(c2nc(-n3nc(C(C)C)c4cccc(F)c43)no2)C1 (stereo not drawn) [Example 613, 3-{3-[7-fluoro-3-(propan-2-yl)-1H-indazol-1-yl]-1,2,4-oxadiazol-5-yl}-N-(2-methoxyethyl)-N-{tetrahydro-2H-pyran-4-ylmethyl)cyclobutanamine] | < 20 nM
22 | COCCN(C1CCOCC1)[C@H]1C[C@H](c2nc(-n3nc(C(C)C)c4cccc(F)c43)no2)C1 [Example 615, N-(trans-3-{3-[7-fluoro-3-(propan-2-yl)-1H-indazol-1-yl]-1,2,4-oxadiazol-5-yl}cyclobutyl)-N-(2-methoxyethyl)tetrahydro-2H-pyran-4-amine] | 27.4 nM
23 | CC(C)c1nn(-c2noc(C3CCC(NCCC4CCCOC4)CC3)n2)c2c(F)cccc12 (stereo not drawn) [Example 619, 4-{3-[7-fluoro-3-(propan-2-yl)-1H-indazol-1-yl]-1,2,4-oxadiazol-5-yl}-N-[2-(tetrahydro-2H-pyran-3-yl)ethyl]cyclohexanamine] | 39.2 nM
24 | COCCNC1CCC(c2nc(-n3nc(C(C)C)c4cccc(F)c43)no2)CC1 (stereo not drawn) [Example 621, 4-{3-[7-fluoro-3-(propan-2-yl)-1H-indazol-1-yl]-1,2,4-oxadiazol-5-yl}-N-(2-methoxyethyl)cyclohexanamine] | 69.4 nM
